Source: US20220195059A1, “Rank Pathway Inhibitors in Combination with CDK Inhibitors” (INSTITUTO DE MEDICINA MOLECULAR JOÃO LOBO ANTUNES, priority 2019, published 2022)

Experiments:
[1] = system: RANK OE cells (MCF-7^OE, T47D^OE) and parental MCF-7, T47D cells; test: Alamar blue viability assay, RANK OE luminal breast cancer cells vs parental counterparts; assay type: cell-based, human; conditions: RANK OE cells vs parental counterparts; drug alone; 7 days
Procedure: Cells were seeded in 96 well-plates (2-5×10^4 cells/mL), with or without paclitaxel (Y0000698, Sigma), doxorubicin hydrochloride (D2975000, Sigma), palbociclib (PD 0332991 isethionate, PZ0199, Sigma), ribociclib (LEE011 succinate, SC-488174, Santa Cruz), abemaciclib mesylate (LY2835219, S7158, Selleckchem), fulvestrant (S1191, Selleckchem), everolimus (#73122, StemCell Technologies), full length human OPG (SRP3132, Sigma), and OPG-Fc (Amgen). Medium was replaced every 2 days. After 7 days, 1:10 Alamar blue (Invitrogen) was added to each well and fluorescence was measured 2 hours after incubation (excitation 560 nm; emission 590 nm) in an Infinite M200 microplate reader (Tecan).
In particular, RANK OE cells were tested for responsiveness to hormone therapy. Briefly, RANK OE cells were seeded in multi-well plates and exposed to fulvestrant for 7 days.
In this assay, however, RANK OE cells were exposed to a CDK 4/6 inhibitor alone or in combination with an inhibitor of the RANK pathway, in order to test the effect of blocking the RANK pathway in this context. Briefly, RANK OE cells were seeded in multi-well plates and exposed to palbociclib, ribociclib or abemaciclib alone or in combination with OPG-Fc for 7 days. Osteoprotegrin (OPG) is the physiologic soluble decoy receptor for RANK ligand (RANKL), and OPG-Fc is a fusion protein comprising only the four cysteine-rich domains of OPG (D1 to D4) fused with the Fc domain of an IgG1 antibody.
In this study, the CDK4/6 inhibitors palbociclib and ribociclib were exposed to RANK OE cells in combination with fulvestrant or everolimus. This combination therapy was then tested alone or in combination with OPG, an inhibitor of the RANK pathway. In this assay, the full-length OPG protein was used, in contrast to the previous example utilizing OPG-Fc.
To address this question, cell growth in the presence or absence of a CDK4 inhibitor was quantified. Briefly, cells were seeded in 96-well plates and exposed to two different drugs, CDK4 inhibitors, 3-ATA (FIG. 20A) or Cdk4 inhibitor Ill (FIG. 20B) for seven days. Medium was replaced every two days, and viability was assessed by Alamar blue assay. FIG. 20A provides the cell growth quantification in the presence of the CDK4 inhibitor 3-ATA and FIG. 20B provides the cell growth quantification in the presence of another CDK4 inhibitor, Cdk4 Inhibitor Ill. The results are the mean of at least three independent assays, with 4 replicates per assay, and presented as the mean±SEM. p-value was calculated using 2-way ANOVA, *p<0.05, **p<0.01, ***p<0.001.
To answer this question, cell growth in the presence of the pan-CDK inhibitor seliciclib (also known as roscovitine or CYC202) was analyzed. Briefly, cells were seeded in 96-well plates and exposed to different drugs for seven days. Medium was replaced every two days, and viability was assessed by Alamar blue assay.
Cells were seeded in 96 well-plates (2-5×10^4 cells/mL), with or without palbociclib (PD 0332991 isethionate, PZ0199, Sigma), ribociclib (LEE011 succinate, SC-488174, Santa Cruz), abemaciclib mesylate (LY2835219, S7158, Selleckchem), 3-ATA (sc-202414, Santa Cruz), Cdk4 inhibitor Ill (sc-202988, Santa Cruz), seliciclib (S1153, Selleckchem), and OPG-Fc (PL-33324, Amgen). Medium was replaced every 2 days. After 7 days, 1:10 Alamar blue (Invitrogen) was added to each well and fluorescence was measured 2 hours after incubation (excitation 560 nm; emission 590 nm) in an Infinite M200 microplate reader (Tecan).

[2] = system: MDA-MB-231 xenografts; test: TNBC ectopic xenograft model; assay type: in vivo, NSG mice; conditions: Palbociclib 30 mg/Kg/day p.o., 21 days; xenografts not regressed
Procedure: Based on these findings TNBC BC sensitivity to CDK4/6 inhibitors (palbociclib) in combination with RANK pathway blockage was tested in a TNBC ectopicxenograft model (FIG. 27). Nod scid gama (NSG) mice were inoculated subcutaneously and bilaterally in the flanks (n=5/group). Tumors were measured with caliper. When tumors reach approximately 100 mm^3 mice were randomized based on tumor size and treated according to the experimental protocol. Palbociclib was used at 30 mg/Kg/day for 21 consecutive days, as the human equivalent dose (HED) of 125 mg/day approved for palbociclib is equivalent to […] in mice (Nair and Jacob, J Basic Clin Pharm. 2016 March; 7(2):27-31). OPG-Fc was used at 10 mg/Kg 3×/week (HED 291.6 mg/15 days).
Nod scid gama (NSG) mice were inoculated subcutaneously and bilaterally in the flanks with MDA-MB-231 cells (n=4-5/group). Six weeks post inoculation mice were randomized based on tumor size and treated with OPG-Fc 10 mg/Kg i.p. 3× per week; Palbociclib 30 mg/Kg/day p.o. or the combination. […] The data are presented as mean±SEM. p-value was calculated using ANOVA, *p<0.05, **p<0.01, ***p<0.001.
Tumor growth was monitored every two days with caliper and tumor volume calculated using the formula Tvol=½(length×width^2). […]
TRAcP 5b was quantified in mouse serum using the MouseTRAP (TRAcP 5b) ELISA kit (IDS), according to the manufacturer instructions.

Question: Which “sensitivity of RANK OE cells to the drug (cell viability)” value [1] does the source give for `CC(=O)c1c(C)c2cnc(Nc3ccc(N4CCNCC4)cn3)nc2n(C2CCCC2)c1=O` [palbociclib] here?
Answer: decreased sensitivity

Question: What about the “tumor growth (tumor volume)” value [2] of the same compound?
Answer: slowing of tumor growth
